Results taken from PMC5298231, “The Malaria Parasite's Lactate Transporter PfFNT Is the Target of Antiplasmodial Compounds Identified in Whole Cell Phenotypic Screens” (PLoS Pathogens, 2017).
Entries after “also recorded” stand apart in the source; their conditions may differ.

Tests used:
Dd2 parent parasites = assay: Parasite proliferation assay, Dd2 parent; type: cell-based, Plasmodium falciparum; details: Plasmodium falciparum, DD2, read-out: IC50 value, growth inhibition
Protocol: Parasite proliferation was measured in 96-well plates using a fluorescent DNA-intercalating dye [45]. The assays were initiated with erythrocytes infected with predominantly ring-stage parasites, and the starting parasitaemia was 0.5–1% and the haematocrit was 1%.

[1] = test system: MMV007839-selected culture B (PfFNT Gly107Ser); assay: Parasite proliferation assay, MMV007839-selected culture B; type: cell-based, Plasmodium falciparum; details: Plasmodium falciparum, read-out: IC50 value, growth inhibition
Protocol: (§1) Parasite proliferation was measured in 96-well plates using a fluorescent DNA-intercalating dye. The assays were initiated with erythrocytes infected with predominantly ring-stage parasites, and the starting parasitaemia was 0.5–1% and the haematocrit was 1%.
(§2) For MMV007839-selected culture A, the drug concentration was increased by 5 nM increments on Day 18, Day 21, and every two days thereafter. […] The cultures were provided with fresh medium and blood and diluted to reduce the parasitaemia as needed.

[2] = test system: MMV007839-selected culture A (PfFNT Gly107Ser); assay: Parasite proliferation assay, MMV007839-selected culture A; type: cell-based, Plasmodium falciparum
Protocol: as §1, §2

3D7 parasites = details: ref [1] Van Voorhis et al. 2016; read-out: IC50 for killing of 3D7 parasites; cited from earlier work
[3] = test system: PfFNT^Gly107Ser mutant parasites (MMV007839-selected culture B); assay: L-[14C]lactate uptake by isolated PfFNT Gly107Ser mutant parasites; details: 100 μM, pH 6.1, 4°C
[4] = test system: isolated 3D7 P. falciparum trophozoites; assay: L-[14C]lactate uptake by isolated 3D7 trophozoites; details: 50 μM; pH 6.1, 4°C; control (DMSO) 6.7 ± 0.4; mean ± SEM
Dd2 parental parasites = assay: L-[14C]lactate uptake by isolated Dd2 parental parasites; details: 100 μM; parental parasites; pH 6.1, 4°C
[5] = test system: erythrocytes infected with 3D7 trophozoites; type: cell-based, Plasmodium falciparum; details: sheet Ratio; for Ratio of metabolite abundance, Exp1_1hr: Exp1, 1hr; for Ratio of metabolite abundance, Exp1_3hr: Exp1, 3hr; for Ratio of metabolite abundance, Exp1_6hr: Exp1, 6hr; for Ratio of metabolite abundance, Exp2_1hr: Exp2, 1hr; for Ratio of metabolite abundance, Exp2_3hr: Exp2, 3hr; for Ratio of metabolite abundance, Exp2_6hr: Exp2, 6hr; for Ratio of metabolite abundance, Exp3_1hr: Exp3, 1hr; for Ratio of metabolite abundance, Exp3_3hr: Exp3, 3hr; for Ratio of metabolite abundance, Exp3_6hr: Exp3, 6hr

Compound | IC50 (3D7 parasites) | Ratio of metabolite abundance, Exp1_1hr [5] | Ratio of metabolite abundance, Exp1_3hr [5] | Ratio of metabolite abundance, Exp1_6hr [5] | Ratio of metabolite abundance, Exp2_1hr [5] | Ratio of metabolite abundance, Exp2_3hr [5] | Ratio of metabolite abundance, Exp2_6hr [5] | Ratio of metabolite abundance, Exp3_1hr [5] | Ratio of metabolite abundance, Exp3_3hr [5] | Ratio of metabolite abundance, Exp3_6hr [5] | other results
C[C@@H]1CC[C@H]2[C@@H](C)C(=O)O[C@@H]3O[C@@]4(C)CC[C@@H]1[C@]32OO4 [Artemisinin, reference compound] | – | – | – | – | – | – | – | – | – | – | IC50 (Dd2 parent parasites): 15.6 nM; IC50 [1]: 16.5 ± 0.4 nM; IC50 ([2]; Plasmodium falciparum, MMV007839-selected culture A, mean ± SEM, read-out: IC50 value, growth inhibition): 22 ± 3.3 nM; Response of MMV007839-selected cultures compared with Dd2 parental parasites ([2]; both MMV007839-selected cultures (A and B), P > 0.1): not significantly different; also recorded: not affecting
CC(C)OCc1cc(CN2CCN(c3cccc(Cl)c3)CC2)c(O)c2ncccc12 [MMV000788] | 700 nM | – | – | – | – | – | – | – | – | – | –
Brc1ccc(Nc2nc3ccccc3nc2Nc2ccc(Br)cc2)cc1 [MMV007224] | 1060 nM | – | – | – | – | – | – | – | – | – | –
Cc1ccc(Nc2nc(-c3ccccn3)cs2)cc1 [MMV007907] | 350 nM | – | – | – | – | – | – | – | – | – | –
Cc1cccc(-n2ncc3c(O)nc(-n4nc(C)cc4NC(=O)c4cc5ccccc5o4)nc32)c1 [MMV403679] | 930 nM | – | – | – | – | – | – | – | – | – | –
FC(F)(F)c1cccc(Nc2nc3ccccc3nc2Nc2cccc(C(F)(F)F)c2)c1 [MMV665794] | 310 nM | – | – | – | – | – | – | – | – | – | –
O=C(Nc1ccc(Cl)c(Cl)c1)Nc1ccc(Cl)c(Cl)c1 [MMV665852] | 1160 nM | – | – | – | – | – | – | – | – | – | –
CCCCNc1nc(NC(C)(C)C)nc(NC(C)(C)C)n1 [MMV665864] | 710 nM | – | – | – | – | – | – | – | – | – | –
O=C(Nc1nc(-c2ccccn2)cs1)c1ccccc1Br [MMV665909] | 1360 nM | – | – | – | – | – | – | – | – | – | –
O=C(Nc1ccc(F)c(Cl)c1)Nc1ccc(Cl)c(Cl)c1 [MMV665953] | 2060 nM | – | – | – | – | – | – | – | – | – | –
O=C(Cc1ccccc1)NC(c1ccc(Cl)cc1)c1c(O)ccc2ccccc12 (stereo not shown) [MMV665972] | 1140 nM | – | – | – | – | – | – | – | – | – | –
CCCCCCc1cc(O)c2c3c(c(=O)oc2c1)CCC(C)C3 (stereo not shown) [MMV665987] | 530 nM | – | – | – | – | – | – | – | – | – | –
O=C(NC(c1ccccc1)c1ccc2cccnc2c1O)c1ccccc1 (stereo not shown) [MMV666080] | 1170 nM | – | – | – | – | – | – | – | – | – | –
O=C(O)c1cc([N+](=O)[O-])ccc1NCCCc1ccccc1 [NPPB, reference compound] | – | – | – | – | – | – | – | – | – | – | Effect on rate of L-[14C]lactate influx [3]: reduced the rate; L-[14C]lactate distribution ratio at 20 s [4]: 0.4 ± 0.1; Effect on rate of L-[14C]lactate influx (Dd2 parental parasites): reduced the rate
Nc1ncnc2c1ncn2[C@H]1C[C@H](O)[C@@H](COP(=O)(O)OP(=O)(O)OP(=O)(O)O)O1 [dATP] | – | 0.9995 | 0.8537 | 0.9613 | 1.009 | 1.102 | 1.077 | 1.104 | 0.9965 | 1.005 | –
Nc1ccn([C@H]2C[C@H](O)[C@@H](COP(=O)(O)OP(=O)(O)O)O2)c(=O)n1 [dCDP] | – | 1.169 | 1.109 | 1.155 | 1.1851 | 1.387 | 1.852 | 1.354 | 1.295 | 1.494 | –
Nc1nc2c(ncn2[C@H]2C[C@H](O)[C@@H](COP(=O)(O)O)O2)c(=O)[nH]1 [dGMP] | – | 1.008 | 1.65 | 0.6713 | 1.04 | 0.9344 | 0.8266 | 1.138 | 0.9165 | 0.8614 | –
Cc1cn([C@H]2C[C@H](O)[C@@H](COP(=O)(O)O)O2)c(=O)[nH]c1=O [dTMP] | – | 1.094 | 1.051 | 1.314 | 1.082 | 1.005 | 1.669 | 0.8062 | 1.245 | 1.203 | –
Cc1cn([C@H]2C[C@H](O)[C@@H](COP(=O)(O)OP(=O)(O)OP(=O)(O)O)O2)c(=O)[nH]c1=O [dTTP] | – | 1.097 | 0.6301 | 0.6957 | 1.256 | 1.272 | 1.427 | 1.1105 | 1.053 | 1.149 | –
O=c1ccn([C@H]2C[C@H](O)[C@@H](COP(=O)(O)O)O2)c(=O)[nH]1 [dUMP] | – | 3.473 | 5.178 | 2.302 | 3.524 | 1.859 | 4.376 | 1.122 | 1.775 | 0.8871 | –
O=P(O)(O)OC[C@H](O)CO [sn-Glycerol 3-phosphate] | – | 2.74 | 3.024 | 2.283 | 2.716 | 2.322 | 2.253 | 2.3639 | 3.645 | 2.752 | –
O=P(O)(OC[C@H](O)CO)OC1[C@H](O)[C@H](O)C(O)[C@H](O)[C@H]1O (stereo partly shown) [sn-glycero-3-Phospho-1-inositol] | – | 0.9506 | 1.24 | 0.9287 | 1.0526 | 1.0759 | 1.139 | 0.7659 | 1.067 | 1.2236 | –
